The record followed here is patent US10633419B2, “Immunomodulators” (BRISTOL-MYERS SQUIBB COMPANY, priority 2014, dated 2020).

The structures appear in SMILES notation. pIC50: −log10 of the molar value. Positions of bridges follow the written chain, without caps; N, C: chain ends. Non-standard residues stand in square brackets, D forms with d. Residues, ends and D or L forms follow the SMILES beside them. ξ: configuration not given here. *: point of attachment. Trp(1-CH2COOH) = N[C@@H](Cc1cn(CC(=O)O)c2ccccc12)C(=O)O; X3 = NC(=O)[C@H](CC(=O)O)NC(=O)CCC(=O)NCCCOCCOCCOCCCN*; d(cisHyp) = O=C(O)[C@H]1C[C@@H](O)CN1; PEG6 = NCCOCCOCCOCCOCCOCCOCCC(=O)O; Palmitoyl = CCCCCCCCCCCCCCCC(=O)*; Hyp = O=C(O)[C@@H]1C[C@@H](O)CN1; Undecanoyl = CCCCCCCCCCC(=O)*; NMeNle = CCCC[C@H](NC)C(=O)O; NMeA = CN[C@@H](C)C(=O)O; Aun = NCCCCCCCCCCC(=O)O; Dab = NCC[C@H](N)C(=O)O; Dap = NC[C@H](N)C(=O)O; ξC = NC(CS)C(=O)O

The target of one experiment is T1, PD-L1 (Homo sapiens, UniProt Q9NZQ7).
T1 construct: hPDL1(19-239)-TVMV-His; made in house; host or cells: HEK293T
T1 sequence (Q9NZQ7 with tags, fused parts or gaps): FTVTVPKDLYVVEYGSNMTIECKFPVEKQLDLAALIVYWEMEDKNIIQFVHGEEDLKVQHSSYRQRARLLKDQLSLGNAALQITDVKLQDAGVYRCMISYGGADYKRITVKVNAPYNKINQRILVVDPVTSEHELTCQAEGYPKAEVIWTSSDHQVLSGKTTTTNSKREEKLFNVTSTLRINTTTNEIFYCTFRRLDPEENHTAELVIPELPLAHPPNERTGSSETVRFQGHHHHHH
Put plainly: PD-1/PD-L1 Homogenous Time-Resolved Fluorescence (HTRF) binding assay (PD-1-Ig/PD-L1-His). The following applies: inhibition of PD-1-Ig binding to PD-L1-TVMV-His; value given as number; read-out: HTRF IC50. A digest of the protocol:
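Inhibitors pre-incubated 15 min with PD-L1-His (10 nM final), then PD-1-Ig (20 nM final) added for 15 min in dPBS/0.1% BSA/0.05% Tween-20. Eu-cryptate anti-Ig (1 nM) and APC anti-His (20 nM) added, 30 min equilibration, 665/620 nm HTRF ratio read.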
In general terms: TR-FRET usually uses a lanthanide donor and a delayed reading to cut background.
On to `CCCCCCCCCCC(=O)NCCCC[C@H](NC(=O)CCOCCOCCOCCOCCOCCOCCNC(=O)[C@@H]1CSCC(=O)N[C@@H](Cc2ccc(O)cc2)C(=O)N(C)[C@@H](C)C(=O)N[C@@H](CC(N)=O)C(=O)N2CCC[C@H]2C(=O)N[C@@H](CN)C(=O)N[C@@H](CCC(N)=O)C(=O)N2C[C@H](O)C[C@@H]2C(=O)N[C@@H](Cc2c[nH]c3ccccc23)C(=O)N[C@@H](CO)C(=O)N[C@@H](Cc2cn(CC(=O)O)c3ccccc23)C(=O)N(C)[C@@H](CCCC)C(=O)N(C)[C@@H](CCCC)C(=O)N[C@@H](CC(C)C)C(=O)N1)C(=O)O` [Example 11062] ({CH2CO}-Y[NMeA]NP[Dap]Q[d(cisHyp)]WS[Trp(1-CH2COOH)][NMeNle][NMeNle]LC[PEG6]K(Undecanoyl)-OH; thioether N-14), for which the negative-log IC50 (pIC50) is 6.34.

For the compound `CCCC[C@H]1C(=O)N(C)[C@@H](CCCC)C(=O)N[C@@H](CCCNC(=N)N)C(=O)N[C@H](C(=O)NCC(=O)NCCCCCCCCCCC(=O)NCCCCCCCCCCC(=O)O)CSCC(=O)N[C@@H](Cc2ccc(O)cc2)C(=O)N(C)[C@@H](C)C(=O)N[C@@H](CC(N)=O)C(=O)N2CCC[C@H]2C(=O)N[C@@H](Cc2cnc[nH]2)C(=O)N[C@@H](CC(C)C)C(=O)N2C[C@H](O)C[C@H]2C(=O)N[C@@H](Cc2c[nH]c3ccccc23)C(=O)N[C@@H](CO)C(=O)N[C@@H](Cc2c[nH]c3ccccc23)C(=O)N1C` [Example 11063] ({CH2CO}-Y[NMeA]NPHL[Hyp]WSW[NMeNle][NMeNle]RCG[Aun][Aun]-OH; thioether N-14), the negative-log IC50 (pIC50) was 8.04.

The same experiment, now with this note: inhibition of PD-1-Ig binding to PD-L1-TVMV-His; value given as range class; read-out: HTRF IC50.
Regarding `CCCCCCCCCCCCCCCC(=O)NCCCC[C@H](NC(=O)[C@H](CC(=O)O)NC(=O)CNC(=O)[C@@H]1CSCC(=O)N[C@@H](Cc2ccc(O)cc2)C(=O)N(C)[C@@H](C)C(=O)N[C@@H](CC(N)=O)C(=O)N2CCC[C@H]2C(=O)N[C@@H](CCN)C(=O)N[C@@H](CC(C)C)C(=O)N2C[C@H](O)C[C@H]2C(=O)N[C@@H](Cc2c[nH]c3ccccc23)C(=O)N[C@@H](CO)C(=O)N[C@@H](Cc2c[nH]c3ccccc23)C(=O)N(C)[C@@H](CCCC)C(=O)N(C)[C@@H](CCCC)C(=O)N[C@@H](CCCNC(=N)N)C(=O)N1)C(N)=O` [Example 11027] ({CH2CO}-Y[NMeA]NP[Dab]L[Hyp]WSW[NMeNle][NMeNle]RCGDK(Palmitoyl)-NH2; thioether N-14), the pIC50 was 5.80 to 7.00. For `CCCCCCCCCCCCCCCC(=O)NCCCC[C@H](NC(=O)CCOCCOCCOCCOCCOCCOCCNC(=O)CNC(=O)C1CSCC(=O)N[C@@H](Cc2ccc(O)cc2)C(=O)N(C)[C@@H](C)C(=O)N[C@@H](CC(=O)O)C(=O)N2CCC[C@H]2C(=O)N[C@@H](Cc2cnc[nH]2)C(=O)N[C@@H](CC(C)C)C(=O)N2C[C@H](O)C[C@H]2C(=O)N[C@@H](Cc2c[nH]c3ccccc23)C(=O)N[C@@H](CO)C(=O)N[C@@H](Cc2c[nH]c3ccccc23)C(=O)N(C)[C@@H](CCCC)C(=O)N(C)[C@@H](CCCC)C(=O)N[C@@H](CCCNC(=N)N)C(=O)N1)C(N)=O` (stereo partly shown) [Example 11029] ({CH2CO}-Y[NMeA]DPHL[Hyp]WSW[NMeNle][NMeNle]R[ξC]G[PEG6]K(Palmitoyl)-NH2; thioether N-14), the pIC50 is 5.80 to 7.00. As for `CCCC[C@H]1C(=O)N(C)[C@@H](CCCC)C(=O)N[C@@H](CC(C)C)C(=O)N[C@H](C(=O)NCCOCCOCCOCCOCCOCCOCCC(=O)O)CSCC(=O)N[C@@H](Cc2ccc(O)cc2)C(=O)N(C)[C@@H](C)C(=O)N[C@@H](CC(N)=O)C(=O)N2CCC[C@H]2C(=O)N[C@@H](Cc2cnc[nH]2)C(=O)N[C@@H](CCC(=O)O)C(=O)N2C[C@H](O)C[C@@H]2C(=O)N[C@@H](Cc2c[nH]c3ccccc23)C(=O)N[C@@H](CCN)C(=O)N[C@@H](Cc2cn(CC(=O)O)c3ccccc23)C(=O)N1C` [Example 11044] ({CH2CO}-Y[NMeA]NPHE[d(cisHyp)]W[Dab][Trp(1-CH2COOH)][NMeNle][NMeNle]LC[PEG6]-OH; thioether N-14), the pIC50 was 7.00 to 8.00. The same measure, in the same setting: the result for `CCCC[C@H]1C(=O)N(C)[C@@H](CCCC)C(=O)N[C@@H](CC(C)C)C(=O)N[C@H](C(=O)NCCOCCOCCOCCOCCOCCOCCC(=O)O)CSCC(=O)N[C@@H](Cc2ccc(O)cc2)C(=O)N(C)[C@@H](C)C(=O)N[C@@H](CC(N)=O)C(=O)N2CCC[C@H]2C(=O)N[C@@H](CO)C(=O)N[C@@H](CCC(N)=O)C(=O)N2C[C@H](O)C[C@@H]2C(=O)N[C@@H](Cc2c[nH]c3ccccc23)C(=O)N[C@@H](CO)C(=O)N[C@@H](Cc2cn(CC(=O)O)c3ccccc23)C(=O)N1C` [Example 11045] ({CH2CO}-Y[NMeA]NPSQ[d(cisHyp)]WS[Trp(1-CH2COOH)][NMeNle][NMeNle]LC[PEG6]-OH; thioether N-14) reads 7.00 to 8.00; that for `CCCC[C@H]1C(=O)N(C)[C@@H](CCCC)C(=O)N[C@@H](CC(C)C)C(=O)N[C@H](C(=O)NCCOCCOCCOCCOCCOCCOCCC(=O)O)CSCC(=O)N[C@@H](Cc2ccc(O)cc2)C(=O)N(C)[C@@H](C)C(=O)N[C@@H](CC(N)=O)C(=O)N2CCC[C@H]2C(=O)N[C@@H](CO)C(=O)N[C@@H](CCC(N)=O)C(=O)N2C[C@H](O)C[C@@H]2C(=O)N[C@@H](Cc2c[nH]c3ccccc23)C(=O)N[C@@H](CN)C(=O)N[C@@H](Cc2cn(CC(=O)O)c3ccccc23)C(=O)N1C` [Example 11046] ({CH2CO}-Y[NMeA]NPSQ[d(cisHyp)]W[Dap][Trp(1-CH2COOH)][NMeNle][NMeNle]LC[PEG6]-OH; thioether N-14), 7.00 to 8.00. Still for that read-out and setting: for `CCCC[C@H]1C(=O)N(C)[C@@H](CCCC)C(=O)N[C@@H](CC(C)C)C(=O)N[C@H](C(=O)NCCOCCOCCOCCOCCOCCOCCC(=O)NCCCCCCCCCCC(=O)O)CSCC(=O)N[C@@H](Cc2ccc(O)cc2)C(=O)N(C)[C@@H](C)C(=O)N[C@@H](CC(N)=O)C(=O)N2CCC[C@H]2C(=O)N[C@@H](CO)C(=O)N[C@@H](CCC(N)=O)C(=O)N2C[C@H](O)C[C@@H]2C(=O)N[C@@H](Cc2c[nH]c3ccccc23)C(=O)N[C@@H](CO)C(=O)N[C@@H](Cc2cn(CC(=O)O)c3ccccc23)C(=O)N1C` [Example 11060] ({CH2CO}-Y[NMeA]NPSQ[d(cisHyp)]WS[Trp(1-CH2COOH)][NMeNle][NMeNle]LC[PEG6][Aun]-OH; thioether N-14) the value was 5.80 to 7.00; for `CCCC[C@H]1C(=O)N(C)[C@@H](CCCC)C(=O)N[C@@H](CC(C)C)C(=O)N[C@H](C(=O)NCCOCCOCCOCCOCCOCCOCCC(=O)NCCCCCCCCCCC(=O)O)CSCC(=O)N[C@@H](Cc2ccc(O)cc2)C(=O)N(C)[C@@H](C)C(=O)N[C@@H](CC(N)=O)C(=O)N2CCC[C@H]2C(=O)N[C@@H](CN)C(=O)N[C@@H](CCC(N)=O)C(=O)N2C[C@H](O)C[C@@H]2C(=O)N[C@@H](Cc2c[nH]c3ccccc23)C(=O)N[C@@H](CCN)C(=O)N[C@@H](Cc2cn(CC(=O)O)c3ccccc23)C(=O)N1C` [Example 11061] ({CH2CO}-Y[NMeA]NP[Dap]Q[d(cisHyp)]W[Dab][Trp(1-CH2COOH)][NMeNle][NMeNle]LC[PEG6][Aun]-OH; thioether N-14), 5.80 to 7.00; for `CCCC[C@H]1C(=O)N(C)[C@@H](CCCC)C(=O)N[C@@H](CCCNC(=N)N)C(=O)N[C@H](C(=O)NCCCCCCCCCCC(N)=O)CSCC(=O)N[C@@H](Cc2ccc(O)cc2)C(=O)N(C)[C@@H](C)C(=O)N[C@@H](CC(=O)O)C(=O)N2CCC[C@H]2C(=O)N[C@@H](Cc2cnc[nH]2)C(=O)N[C@@H](CC(C)C)C(=O)N2C[C@H](O)C[C@H]2C(=O)N[C@@H](Cc2c[nH]c3ccccc23)C(=O)N[C@@H](CO)C(=O)N[C@@H](Cc2c[nH]c3ccccc23)C(=O)N1C` [Example 11064] ({CH2CO}-Y[NMeA]DPHL[Hyp]WSW[NMeNle][NMeNle]RC[Aun]-NH2; thioether N-14), 8.00 to 9.52. On the same count and under the same terms, the result for `CCCC[C@H]1C(=O)N(C)[C@@H](CCCC)C(=O)N[C@@H](CC(C)C)C(=O)N[C@H](C(=O)NCC(=O)NCCCOCCOCCOCCCNC(=O)CCC(=O)N[C@@H](CC(=O)O)C(N)=O)CSCC(=O)N[C@@H](Cc2ccc(O)cc2)C(=O)N(C)[C@@H](C)C(=O)N[C@@H](CC(N)=O)C(=O)N2CCC[C@H]2C(=O)N[C@@H](Cc2cnc[nH]2)C(=O)N[C@@H](CCC(=O)O)C(=O)N2C[C@H](O)C[C@H]2C(=O)N[C@@H](Cc2c[nH]c3ccccc23)C(=O)N[C@@H](CCN)C(=O)N[C@@H](Cc2c[nH]c3ccccc23)C(=O)N1C` [Example 11065] ({CH2CO}-Y[NMeA]NPHE[Hyp]W[Dab]W[NMeNle][NMeNle]LCG-X3; thioether N-14) reads 7.00 to 8.00; that for `CCCC[C@H]1C(=O)N(C)[C@@H](CCCC)C(=O)N[C@@H](CC(C)C)C(=O)N[C@H](C(=O)NCCCCCCCCCCC(=O)N[C@@H](CC(=O)O)C(N)=O)CSCC(=O)N[C@@H](Cc2ccc(O)cc2)C(=O)N(C)[C@@H](C)C(=O)N[C@@H](CC(N)=O)C(=O)N2CCC[C@H]2C(=O)N[C@@H](Cc2cnc[nH]2)C(=O)N[C@@H](CCC(=O)O)C(=O)N2C[C@H](O)C[C@H]2C(=O)N[C@@H](Cc2c[nH]c3ccccc23)C(=O)N[C@@H](CCN)C(=O)N[C@@H](Cc2cn(CC(=O)O)c3ccccc23)C(=O)N1C` [Example 11066] ({CH2CO}-Y[NMeA]NPHE[Hyp]W[Dab][Trp(1-CH2COOH)][NMeNle][NMeNle]LC[Aun]D-NH2; thioether N-14), 8.00 to 9.52. `CCCC[C@H]1C(=O)N(C)[C@@H](CCCC)C(=O)N[C@@H](CC(C)C)C(=O)N[C@H](C(=O)NCCCOCCOCCOCCCNC(=O)CCC(=O)N[C@@H](CC(=O)O)C(N)=O)CSCC(=O)N[C@@H](Cc2ccc(O)cc2)C(=O)N(C)[C@@H](C)C(=O)N[C@@H](CC(N)=O)C(=O)N2CCC[C@H]2C(=O)N[C@@H](Cc2cnc[nH]2)C(=O)N[C@@H](CCC(=O)O)C(=O)N2C[C@H](O)C[C@H]2C(=O)N[C@@H](Cc2c[nH]c3ccccc23)C(=O)N[C@@H](CCN)C(=O)N[C@@H](Cc2cn(CC(=O)O)c3ccccc23)C(=O)N1C` [Example 11067] ({CH2CO}-Y[NMeA]NPHE[Hyp]W[Dab][Trp(1-CH2COOH)][NMeNle][NMeNle]LC-X3; thioether N-14): the pIC50 was 7.00 to 8.00.

Broadly, the pIC50 is the IC50 on a negative log10 scale, so that one unit is a factor of ten.
